The values that follow are results of earlier work, collected in patent US20210379148A1, “REGULATING MUSCLE PHYSIOLOGY AND ENERGY METABOLISM USING CRYM” (University Of Maryland, Baltimore, priority 2020, published 2021).

Broadly, the Kd is the concentration at which binding is half-saturated.

For one data set, the target named is thyroid hormone receptors (TR) α and β. Conditions: read-out: KD, binding to thyroid hormone receptors (TR) α and β.
On to `N[C@@H](Cc1cc(I)c(Oc2cc(I)c(O)c(I)c2)c(I)c1)C(=O)O` [T4], for which the Kd is 2 nM.

A further data set deals with μ-crystallin ketimine reductase (Homo sapiens, UniProt Q14894). To be noted: read-out: K1, inhibition of μ-crystallin's activity as a ketimine reductase.
μ-crystallin ketimine reductase, sequence (Q14894 whole entry): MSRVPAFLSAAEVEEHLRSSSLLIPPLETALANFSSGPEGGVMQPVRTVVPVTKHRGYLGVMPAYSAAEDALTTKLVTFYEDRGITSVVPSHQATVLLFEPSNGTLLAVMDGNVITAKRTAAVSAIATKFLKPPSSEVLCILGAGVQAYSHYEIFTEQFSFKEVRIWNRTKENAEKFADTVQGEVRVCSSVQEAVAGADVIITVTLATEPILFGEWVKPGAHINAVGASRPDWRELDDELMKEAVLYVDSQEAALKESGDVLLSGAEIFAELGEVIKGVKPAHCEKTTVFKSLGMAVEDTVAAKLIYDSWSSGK
In the case of `N[C@@H](Cc1cc(I)c(Oc2cc(I)c(O)c(I)c2)c(I)c1)C(=O)O` [T4], the Ki was 0.75 nM.

The test system of a further data set is CRYM protein. To be noted: chemical alone.
In the case of `CN[C@@H](C)Cc1ccccc1` [Methamphetamine], the “expression of CRYM protein” value was “Methamphetamine results in increased expression of CRYM”. Regarding `C[C@@H]1Cc2c(Cl)cc(C(=O)N[C@@H](Cc3ccccc3)C(=O)O)c(O)c2C(=O)O1` [ochratoxin A], the “expression of CRYM protein” value was “ochratoxin A results in increased expression of CRYM protein”.

The next data set concerns skeletal muscles (soleus, EDL). Conditions: rats, thyrotoxic doses of T3 and T4.
In the case of `N[C@@H](Cc1cc(I)c(Oc2cc(I)c(O)c(I)c2)c(I)c1)C(=O)O` [T4], the “effect on fast twitch extensor digitorum longus (EDL) muscles” value is listed as “no effect”.

In the case of `N[C@@H](Cc1cc(I)c(Oc2ccc(O)c(I)c2)c(I)c1)C(=O)O` [T3, triiodothyronine], the “effect on fast twitch extensor digitorum longus (EDL) muscles” value was “no effect”.

Still in this data set, the particulars now being: rats, thyrotoxic doses of T3 and T4; without accompanying changes in contractile velocity.
`N[C@@H](Cc1cc(I)c(Oc2cc(I)c(O)c(I)c2)c(I)c1)C(=O)O` [T4]: the “effect on slow twitch soleus muscle” value was “shift in slow twitch soleus muscle from slow to faster characteristics”. For the compound `N[C@@H](Cc1cc(I)c(Oc2ccc(O)c(I)c2)c(I)c1)C(=O)O` [T3, triiodothyronine], the “effect on slow twitch soleus muscle” value is given as “shift in slow twitch soleus muscle from slow to faster characteristics”.

In a further data set the test system is CRYM mRNA.
Settings: not given
Consider `C[C@]12CCC(=O)C[C@@H]1CC[C@@H]1[C@@H]2CC[C@]2(C)[C@@H](O)CC[C@@H]12` [Dihydrotestosterone], for which the “expression of CRYM mRNA” value was “Dihydrotestosterone results in increased expression of CRYM”. For `[K+].[K+].[O]=[Cr](=[O])([O-])[O][Cr](=[O])(=[O])[O-]` [Potassium Dichromate], the “expression of CRYM mRNA” value is on record as “Potassium Dichromate results in increased expression of”.

The data set is the same for the next values; noted with them: Methionine deficiency co-treated with Choline deficiency co-treated with Folic Acid deficiency.
For `Nc1nc2ncc(CNc3ccc(C(=O)N[C@@H](CCC(=O)O)C(=O)O)cc3)nc2c(=O)[nH]1` [Folic Acid], the “expression of CRYM mRNA” value is listed as “treated with Folic Acid deficiency] results in increased”. Turning to `CSCC[C@H](N)C(=O)O` [Methionine], the “expression of CRYM mRNA” value was “treated with Folic Acid deficiency] results in increased”.

Staying with this data set, now noted: NOG protein co-treated with entinostat, dorsomorphin and 4-(5-benzo(1,3)dioxol-5-yl-4-pyridin-2-yl-1H-imidazol-2-yl)benzamide.
Take `NC(=O)c1ccc(-c2nc(-c3ccccn3)c(-c3ccc4c(c3)OCO4)[nH]2)cc1` [4-(5-benzo(1,3)dioxol-5-yl-4-pyridin-2-yl-1H-imidazol-2-yl)benzamide]: the “expression of CRYM mRNA” value is “pyridin-2-yl-1H-imidazol-2-yl)benzamide] results in increased”. As for `Nc1ccccc1NC(=O)c1ccc(CNC(=O)OCc2cccnc2)cc1` [entinostat], the “expression of CRYM mRNA” value is reported as “pyridin-2-yl-1H-imidazol-2-yl)benzamide] results in increased”.

Still in this data set, the particulars now being: Oxaliplatin co-treated with Topotecan.
Regarding `O=C1[O][Pt]2([NH][C@@H]3CCCC[C@H]3[NH]2)[O]C1=O` [Oxaliplatin], the “expression of CRYM mRNA” value was “[Oxaliplatin co-treated with Topotecan] results in increased”.

Still in this data set, the particulars now being: chemical alone.
On to `CC(N)Cc1ccccc1` (stereo not drawn) [Amphetamine], for which the “expression of CRYM mRNA” value is recorded as “Amphetamine results in increased expression of CRYM”. For `CCCC(CCC)C(=O)O` [Valproic Acid], the “expression of CRYM mRNA” value is listed as “Valproic Acid results in increased expression of CRYM”. For `c1ccc2c(c1)ccc1cc3c(ccc4ccccc43)cc12` [1,2,5,6-dibenzanthracene], the “expression of CRYM mRNA” value is 1,2,5,6-dibenzanthracene results in increased expression of. On to `O=C1[O][Pt]2([NH][C@@H]3CCCC[C@H]3[NH]2)[O]C1=O` [Oxaliplatin], for which the “expression of CRYM mRNA” value is reported as “Oxaliplatin results in increased expression of CRYM mRNA”.

With `Clc1cnc(Oc2ccc(Oc3ncc(Cl)cc3Cl)cc2)c(Cl)c1` [1,4-bis(2-(3,5-dichloropyridyloxy))benzene], the “expression of CRYM mRNA” value is reported as “increased expression of CRYM mRNA”. For `CC1=C(/C=C/C(C)=C/C=C/C(C)=C/C(=O)O)C(C)(C)CCC1` [Tretinoin], the “expression of CRYM mRNA” value is listed as “Tretinoin results in increased expression of CRYM mRNA”. In the case of `c1ccc2c(c1)cc1ccc3cccc4ccc2c1c34` [Benzo(a)pyrene], the “expression of CRYM mRNA” value is “Benzo(a)pyrene results in increased expression of CRYM”. Turning to `CCCCC=O` [pentanal], the “expression of CRYM mRNA” value is “pentanal results in increased expression of CRYM mRNA”. Consider `CC[C@@]1(O)C(=O)OCc2c1cc1n(c2=O)Cc2cc3c(CN(C)C)c(O)ccc3nc2-1` [Topotecan], for which the “expression of CRYM mRNA” value is recorded as “Topotecan results in increased expression of CRYM mRNA”. Turning to `CCCCOC(=O)c1ccccc1C(=O)OCCCC` [Dibutyl Phthalate], the “expression of CRYM mRNA” value was “Dibutyl Phthalate results in increased expression of CRYM”. Take `Oc1ccc(Cc2ccc(O)cc2)cc1` [bisphenol F]: the “expression of CRYM mRNA” value was “bisphenol F results in increased expression of CRYM mRNA”.

Regarding `CNC(=O)O[C@@H](CC(C)C)c1nc([C@H]2OC(=O)/C=C/C/C(C)=C/[C@@H](O)[C@@H](C)\C=C(C)/C=C(C)\C=C\[C@@H](O)[C@H](C)[C@H](OC)/C(C)=C/C=C/[C@@H]2C)cs1` [archazolid B], the “expression of CRYM mRNA” value is listed as “archazolid B results in increased expression of CRYM mRNA”. As for `O=S(=O)(c1ccc(O)cc1)c1ccc(O)cc1` [bis(4-hydroxyphenyl)sulfone], the “expression of CRYM mRNA” value is on record as “bis(4-hydroxyphenyl)sulfone results in increased expression”.

`CCC=O` [propionaldehyde]: the “expression of CRYM mRNA” value was “propionaldehyde results in increased expression of CRYM”. For the compound `Clc1cc2c(cc1Cl)Oc1cc(Cl)c(Cl)cc1O2` [Tetrachlorodibenzodioxin], the “expression of CRYM mRNA” value is “Tetrachlorodibenzodioxin results in increased expression of”. In the case of `C=CC=C` [1,3-butadiene], the “expression of CRYM mRNA” value is given as 1,3-butadiene results in increased expression of CRYM. Regarding `CCCc1cc(=O)[nH]c(=S)[nH]1` [Propylthiouracil], the “expression of CRYM mRNA” value is reported as “Propylthiouracil results in increased expression of CRYM”. As to `CC1=C(/C=C/C(C)=C/C=C/C(C)=C/C(=O)Nc2ccc(O)cc2)C(C)(C)CCC1` [Fenretinide], the “expression of CRYM mRNA” value is reported as “Fenretinide results in increased expression of CRYM mRNA”.

Take `CN[C@@H](Cc1c[nH]c2ccccc12)C(=O)O` [abrine]: the “expression of CRYM mRNA” value was “abrine results in increased expression of CRYM mRNA”. For the compound `CCCC=O` [butyraldehyde], the “expression of CRYM mRNA” value is listed as “butyraldehyde results in increased expression of CRYM”. `ClC(Cl)(Cl)Cl` [Carbon Tetrachloride]: the “expression of CRYM mRNA” value was “Carbon Tetrachloride results in increased expression of”. Turning to `CCO` [Ethanol], the “expression of CRYM mRNA” value is reported as “Ethanol results in increased expression of CRYM mRNA”.

With `O=c1c(O)c(-c2ccc(O)c(O)c2)oc2cc(O)cc(O)c12` [Quercetin], the “expression of CRYM mRNA” value was “Quercetin results in increased expression of CRYM mRNA”. `Nc1ccccc1NC(=O)c1ccc(CNC(=O)OCc2cccnc2)cc1` [entinostat]: the “expression of CRYM mRNA” value was “entinostat results in increased expression of CRYM mRNA”.
